According to ChEMBL document CHEMBL1136696, “Azalide 3,6-ketals: antibacterial activity and structure-activity relationships of aryl and hetero aryl substituted analogues” (Bioorg Med Chem Lett, 2003):
Converted amounts (≈) assume the structure as drawn.

What was measured:
Type in all cases: functional
Escherichia coli = assay: In vitro antibacterial activity against Escherichia coli 51A0150
Pasteurella multocida = assay: In vitro antibacterial activity against Pasteurella multocida 59A0067
Staphylococcus aureus = assay: In vitro antibacterial activity against Staphylococcus aureus 01A0758

MIC (Escherichia coli)	MIC (Pasteurella multocida)	MIC (Staphylococcus aureus)	Compound
3.13 µg/mL (≈ 4.15 µM)	0.39 µg/mL (≈ 0.517 µM)	3.13 µg/mL (≈ 4.15 µM)	CC[C@H]1OC(=O)[C@H](C)[C@H]2OC3(CCN(c4nccs4)CC3)O[C@](C)(C[C@@H](C)CN(C)[C@H](C)[C@@H](O)[C@]1(C)O)[C@H](O[C@@H]1O[C@H](C)CC(N(C)C)[C@H]1O)[C@H]2C (stereo partly drawn)
50 µg/mL (≈ 62 µM)	3.13 µg/mL (≈ 3.88 µM)	6.25 µg/mL (≈ 7.74 µM)	CCOC(=O)c1ccc(N2CCC3(CC2)O[C@H]2[C@H](C)[C@@H](O[C@@H]4O[C@H](C)CC(N(C)C)[C@H]4O)[C@@](C)(C[C@@H](C)CN[C@H](C)[C@@H](O)[C@](C)(O)[C@@H](CC)OC(=O)[C@@H]2C)O3)nc1 (stereo partly drawn)
3.13 µg/mL (≈ 3.93 µM)	0.2 µg/mL (≈ 0.251 µM)	1.56 µg/mL (≈ 1.96 µM)	CC[C@H]1OC(=O)[C@H](C)[C@H]2OC3(CCN(c4cc(OC)nc(OC)n4)CC3)O[C@](C)(C[C@@H](C)CN[C@H](C)[C@@H](O)[C@]1(C)O)[C@H](O[C@@H]1O[C@H](C)CC(N(C)C)[C@H]1O)[C@H]2C (stereo partly drawn)
> 50 µg/mL	1.56 µg/mL (≈ 1.72 µM)	3.13 µg/mL (≈ 3.45 µM)	CC[C@H]1OC(=O)[C@H](C)[C@H]2OC3(CCN(c4ccc(S(=O)(=O)c5ccc(F)cc5)cc4)CC3)O[C@](C)(C[C@@H](C)CN(C)[C@H](C)[C@@H](O)[C@]1(C)O)[C@H](O[C@@H]1O[C@H](C)CC(N(C)C)[C@H]1O)[C@H]2C (stereo partly drawn)
12.5 µg/mL (≈ 15.3 µM)	1.56 µg/mL (≈ 1.91 µM)	6.25 µg/mL (≈ 7.64 µM)	CC[C@H]1OC(=O)[C@H](C)[C@H]2OC3(CCN(c4nccc(C(F)(F)F)n4)CC3)O[C@](C)(C[C@@H](C)CN(C)[C@H](C)[C@@H](O)[C@]1(C)O)[C@H](O[C@@H]1O[C@H](C)CC(N(C)C)[C@H]1O)[C@H]2C (stereo partly drawn)
> 50 µg/mL	> 50 µg/mL	0.78 µg/mL (≈ 0.831 µM)	CC[C@H]1OC(=O)[C@H](C)[C@H]2OC3(CCN(c4ncc(C(=O)OCc5ccccc5)c(C(F)(F)F)n4)CC3)O[C@](C)(C[C@@H](C)CN[C@H](C)[C@@H](O)[C@]1(C)O)[C@H](O[C@@H]1O[C@H](C)CC(N(C)C)[C@H]1O)[C@H]2C (stereo partly drawn)
12.5 µg/mL (≈ 14.5 µM)	3.13 µg/mL (≈ 3.64 µM)	25 µg/mL (≈ 29.1 µM)	CC[C@H]1OC(=O)[C@H](C)[C@H]2OC3(CCN(c4ccc(C(=O)O)c(C(F)(F)F)c4)CC3)O[C@](C)(C[C@@H](C)CN(C)[C@H](C)[C@@H](O)[C@]1(C)O)[C@H](O[C@@H]1O[C@H](C)CC(N(C)C)[C@H]1O)[C@H]2C (stereo partly drawn)
> 50 µg/mL	> 50 µg/mL	3.52 µg/mL (≈ 3.98 µM)	CC[C@H]1OC(=O)[C@H](C)[C@H]2OC3(CCN(c4ncc(C(=O)NCc5ccncc5)cn4)CC3)O[C@](C)(C[C@@H](C)CN(C)[C@H](C)[C@@H](O)[C@]1(C)O)[C@H](O[C@@H]1O[C@H](C)CC(N(C)C)[C@H]1O)[C@H]2C (stereo partly drawn)
12.5 µg/mL (≈ 16.4 µM)	1.56 µg/mL (≈ 2.04 µM)	6.35 µg/mL (≈ 8.32 µM)	CC[C@H]1OC(=O)[C@H](C)[C@H]2OC3(CCN(c4ccc(N)cc4)CC3)O[C@](C)(C[C@@H](C)CN(C)[C@H](C)[C@@H](O)[C@]1(C)O)[C@H](O[C@@H]1O[C@H](C)CC(N(C)C)[C@H]1O)[C@H]2C (stereo partly drawn)
6.25 µg/mL (≈ 7.97 µM)	0.39 µg/mL (≈ 0.497 µM)	1.56 µg/mL (≈ 1.99 µM)	CC[C@H]1OC(=O)[C@H](C)[C@H]2OC3(CCN(c4cncc(Cl)n4)CC3)O[C@](C)(C[C@@H](C)CN(C)[C@H](C)[C@@H](O)[C@]1(C)O)[C@H](O[C@@H]1O[C@H](C)CC(N(C)C)[C@H]1O)[C@H]2C (stereo partly drawn)
0.78 µg/mL (≈ 0.976 µM)	0.2 µg/mL (≈ 0.25 µM)	1.56 µg/mL (≈ 1.95 µM)	CC[C@H]1OC(=O)[C@H](C)[C@H]2OC3(CCN(c4cc(CO)cc(Cl)n4)CC3)O[C@](C)(C[C@@H](C)CN[C@H](C)[C@@H](O)[C@]1(C)O)[C@H](O[C@@H]1O[C@H](C)CC(N(C)C)[C@H]1O)[C@H]2C (stereo partly drawn)
3.13 µg/mL (≈ 4.1 µM)	0.2 µg/mL (≈ 0.262 µM)	6.25 µg/mL (≈ 8.18 µM)	CC[C@H]1OC(=O)[C@H](C)[C@H]2OC3(CCN(c4ccc(C)nn4)CC3)O[C@](C)(C[C@@H](C)CN(C)[C@H](C)[C@@H](O)[C@]1(C)O)[C@H](O[C@@H]1O[C@H](C)CC(N(C)C)[C@H]1O)[C@H]2C (stereo partly drawn)
6.25 µg/mL (≈ 7.87 µM)	0.39 µg/mL (≈ 0.491 µM)	3.13 µg/mL (≈ 3.94 µM)	CC[C@H]1OC(=O)[C@H](C)[C@H]2OC3(CCN(c4ccc([N+](=O)[O-])cn4)CC3)O[C@](C)(C[C@@H](C)CN(C)[C@H](C)[C@@H](O)[C@]1(C)O)[C@H](O[C@@H]1O[C@H](C)CC(N(C)C)[C@H]1O)[C@H]2C (stereo partly drawn)
6.25 µg/mL (≈ 7.72 µM)	0.39 µg/mL (≈ 0.481 µM)	1.56 µg/mL (≈ 1.93 µM)	CC[C@H]1OC(=O)[C@H](C)[C@H]2OC3(CCN(c4cc(OC)nc(OC)n4)CC3)O[C@](C)(C[C@@H](C)CN(C)[C@H](C)[C@@H](O)[C@]1(C)O)[C@H](O[C@@H]1O[C@H](C)CC(N(C)C)[C@H]1O)[C@H]2C (stereo partly drawn)
3.13 µg/mL (≈ 4.01 µM)	0.39 µg/mL (≈ 0.5 µM)	1.56 µg/mL (≈ 2 µM)	CC[C@H]1OC(=O)[C@H](C)[C@H]2OC3(CCN(c4ccc([N+](=O)[O-])cn4)CC3)O[C@](C)(C[C@@H](C)CN[C@H](C)[C@@H](O)[C@]1(C)O)[C@H](O[C@@H]1O[C@H](C)CC(N(C)C)[C@H]1O)[C@H]2C (stereo partly drawn)
6.25 µg/mL (≈ 7.87 µM)	1.56 µg/mL (≈ 1.96 µM)	0.78 µg/mL (≈ 0.982 µM)	CC[C@H]1OC(=O)[C@H](C)[C@H]2OC3(CCN(c4cc(C)c([N+](=O)[O-])cn4)CC3)O[C@](C)(C[C@@H](C)CN[C@H](C)[C@@H](O)[C@]1(C)O)[C@H](O[C@@H]1O[C@H](C)CC(N(C)C)[C@H]1O)[C@H]2C (stereo partly drawn)
